Columns and labels:
[1] = T1 (longitudinal) relaxivity in buffered saline by spin echo inversion recovery MRI; format: physicochemical; conditions: buffered saline (DPBS)
Experimental: T1 Relaxivity at 1.5 Tesla. The longitudinal relaxivities of CP and Mito-CP were determined using a LX 1.5 T GE Scanner (GE, Waukesha, Wis.) using an 8-channel head rf coil. Solutions of CP and Mito-CP were diluted with Dulbecco's Phosphate Buffered Saline (DPBS) to the following concentrations: 5.0 μM, 10.0 μM, 20.0 μM, 50.0 μM, 100.0 μM, 200.0 μM, 300.0 μM, 500.0 μM, 700.0 μM, 1.0 mM, 2.0 mM, 5.0 mM, 10.0 mM, and 20.0 mM. Longitudinal relaxation times (T1) for each solution and relaxivities (R1) for CP and Mito-CP were calculated using images from a standard spin echo sequence (TE=14 msec, TR=10 sec) at various inversion times (TI=50, 125 msec incrementing by 125 msec to 3500 msec and 4000 msec).
T1 Relaxivity at 3.0 Tesla. The longitudinal relaxivities of CP and Mito-CP were determined using a Signa 3.0 T GE Scanner (GE, Waukesha, Wis.) using a custom rf quadrature coil. Solutions of CP and Mito-CP were diluted with Dulbecco's Phosphate Buffered Saline (DPBS) to the following concentrations: 1.0 μM, 10.0 μM, 100.0 μM, 1.0 mM, 10.0 mM, and 20.0 mM. Longitudinal relaxation times (T1) for each solution and relaxivities (R1) for CP and Mito-CP were calculated using images from a standard spin echo sequence (TE=9 msec, TR=15 sec) at various inversion times (TI=100 msec incrementing by 100 msec to 4000 msec and 50, 150, 1050, 1150 msec).
T1 Relaxivity at 9.4 Tesla. Both solutions were diluted with Dulbecco's Phosphate Buffered Saline (DPBS) to the following concentrations: […], 1.0 mM, 10.0 mM, and 20.0 mM. Longitudinal relaxation times (T1) for each solution and relaxivities (R1) for CP and Mito-CP were calculated using a standard spin echo sequence (TE=9 msec, TR=15,000 msec) at various inversion times (TI=100 msec incrementing by 100 msec to 4000 msec and 50, 150, 1050, 1150 msec).
The longitudinal relaxivities of other nitroxides have been approximate […]. In order to assess the longitudinal relaxivity of CP and Mito-CP, concentrations were prepared with the expectation of this relaxivity. Two separate initial solutions of CP and Mito-CP were prepared. Longitudinal relaxivities were determined for both CP and Mito-CP at three field strengths. Relaxivities were obtained from non-linear fits of standard spin echo inversion recovery images calculated using Matlab.

[2] = for EPR signal of blood following treatment with ferricyanide: rat blood from catheter after dynamic EPR spectra
[3] = test system: non-tumorigenic MCF10-A breast epithelial cells; test: MTT cell viability assay; format: cell-based; conditions: normal MCF10-A, 1-30 uM, 48 h
Experimental: (§1) Cell Culture. MCF7, MDA-MB-231 and MCF10-A cells were obtained from the American Type Culture Collection (ATCC) and cultured at 37° C. in humidified 95% air/5% CO2. MCF7 cells were maintained in MEM-alpha medium containing 10% FBS, L-glutamine (4 mM), penicillin (100 μg/ml), streptomycin (100 μg/ml), non-essential amino acids and sodium pyruvate. MDA-MB-23 were grown in Dulbecco's Modified Eagle's medium (DMEM) containing 10% FBS, L-glutamine (4 mM), penicillin (100 μg/ml), and streptomycin (100 μg/ml). MCF10-A cells were maintained in F-12 media supplemented with 20% FHS, hydrocortisone, cholera toxin, penicillin, streptomycin, and endothelial cell growth factor (ECGF). Typically, the day of the treatment, various concentrations of the nitroxides were added to the cells directly in the media.
(§2) The MTT assay (Sigma-Aldrich, Milwaukee, Wis.) was used to measure cell survival using quantitative colorimetry (λ=570 nm). This assay is based on the capacity of mitochondrial dehydrogenases to reduce MTT to form the insoluble formazan product. Cells were plated in 12-well plates and treated at pre-confluency with Mito-CP and CP (0-30 μM) in their respective media for 48 h. The culture media was removed after treatment, washed gently with DPBS and MTT (5 mg/ml in media) was added to each well, following incubation of the plates for 1 h at 37° C. The MTT solution was removed and the formazan product in each well was dissolved with dimethyl sulfoxide (DMSO). The optical density of each well was measured using an Agilent 8453 UV-Vis spectrometer at 570 nm.
(§3) MCF7, MDA-MB-231 and non-tumorigenic MCF10-A were grown to pre-confluency and treated with either Mito-CP or parent compound CP (1-30 uM) for 48 h and cell viability was measured using the MTT assay.

MCF7 cells = test: MTT cell viability assay; format: cell-based; conditions: MCF7, 1-30 uM, 48 h
Experimental: as §1, §2, §3

MDA-MB-231 cells = test: MTT cell viability assay; format: cell-based; conditions: MDA-MB-231, 1-30 uM, 48 h
Experimental: as §1, §2, §3

[4] = test system: isolated rabbit heart mitochondria; test: In vitro localization in isolated mitochondria, MRI T1 analysis; conditions: for T1 / enhancement of treated mitochondria (uptake): 10 uM, 37° C. 10 minutes, 3.0 T, compared to mitochondria alone
Experimental: The experiment was carried out on a Signa 3.0 T GE scanner (GE, Waukesha, Wis.) using a custom quadrature rf coil with a G10 fiberglass vial rack. Rabbit heart mitochondria were isolated. For verification of MR detectable mitochondrial accumulation of Mito-CP, isolated rabbit mitochondria were separated into […] eppendorf tubes each containing 40 μL of 15 mg/ml mitochondria. Six eppendorf tubes were prepared as indicated in Table 1 below (1-6), and three additional eppendorf tubes were prepared from the supernatant of tubes 4-6 (4b-6b): Note that succinate is needed to activate the mitochondrial respiratory chain, necessary for normal function. All tubes were incubated at 37° C. for 10 minutes. Immediately following incubation, all tubes were centrifuged at 1,000×g for 4 minutes at 4° C. The supernatant was then transferred into another eppendorf tube. The mitochondria in tubes 4-6 were re-suspended with the addition of […] of DPBS and allowed to settle naturally. […] To determine the specificity that Mito-CP has toward mitochondria, the compound carboxy-proxyl (CP) was used for comparison. CP is a 5-member nitroxide ring, depicted in FIG. 1, without the ten chain linking carbons and the triphenylphosphonium. […] These properties make CP an ideal control for specificity of Mito-CP toward mitochondria.

[5] = cited from earlier work

Compound | longitudinal relaxivity R1 ([1]; 3.0 T) [mM⁻¹ s⁻¹] | EPR signal of blood following treatment with ferricyanide [2] | induction of apoptosis / cell viability (MTT) [3] | induction of cancer cell apoptosis / cell viability (MTT) (MCF7 cells) | induction of cancer cell apoptosis / cell viability (MTT) (MDA-MB-231 cells) | T1 / enhancement of treated mitochondria (uptake) [4] | permeability to lipid membranes [5] | longitudinal relaxivity R1 ([1]; 1.5 T) [mM⁻¹ s⁻¹] | longitudinal relaxivity R1 ([1]; 9.4 T) [mM⁻¹ s⁻¹] | time to elimination/reduction from the blood ([2]; rat, following bolus injection) [min] | in vivo half-life in blood ([2]; single rat, tail-vein bolus, monoexponential fit after peak) | increase in concentration within the mitochondria compared to the incubating solution ([4]; 10 uM incubating solution) [fold] | estimated mitochondrial associated tissue concentration ([4]; 10 uM incubating solution, calculated from relaxivity and T1) [mM]
CC1(C)CC(C(=O)O)C(C)(C)N1[O] (stereo not shown) [CP, carboxy-proxyl, reference compound] | 0.1546 ± 0.00567 | not back to its initial level | no influence inducing apoptosis | did not | did not | did not enhance considerably | impermeable to lipid membranes |  |  |  |  |  | 
(11-(3-carboxy-2,2,5,5-tetramethyl-1-pyrrolidinyloxy)-undecyl)-triphenylphosphonium bromide [Mito-CP] | 0.2322 ± 0.0151 | signal was recovered | no influence inducing apoptosis | induced cancer cell apoptosis | induced cancer cell apoptosis | shortened T1, indicating uptake |  | 0.1643 ± 0.01314 | 0.2083 ± 0.0431 | ≤ 30 | approximately 2 minutes | ≥ 140 | 0.143
